Data reported in PubChem BioAssay (NCI).
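Grown in 96-well plates, cells were treated for 48 hours with each compound at five concentrations. Insufficient inhibition: endpoint recorded as highest concentration tested. TGI: concentration producing complete growth inhibition.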

Legend:
Assay in all cases: inhibition of tumour cell growth, NCI panel, 48 h
786-0 renal = test system: 786-0 renal
A498 renal = test system: A498 renal
A549 NSCLC = test system: A549 NSCLC
ACHN renal = test system: ACHN renal
BT-549 breast = test system: BT-549 breast
CAKI-1 renal = test system: CAKI-1 renal
COLO 205 colon = test system: COLO 205 colon
DU-145 prostate = test system: DU-145 prostate
EKVX NSCLC = test system: EKVX NSCLC
HCT-116 colon = test system: HCT-116 colon
HCT-15 colon = test system: HCT-15 colon
HL-60(TB) leukemia = test system: HL-60(TB) leukemia
HOP-62 NSCLC = test system: HOP-62 NSCLC
HOP-92 NSCLC = test system: HOP-92 NSCLC
HS 578T breast = test system: HS 578T breast
HT29 colon = test system: HT29 colon
IGROV1 ovarian = test system: IGROV1 ovarian
K-562 leukemia = test system: K-562 leukemia
KM12 colon = test system: KM12 colon
LOX IMVI melanoma = test system: LOX IMVI melanoma
M14 melanoma = test system: M14 melanoma
MALME-3M melanoma = test system: MALME-3M melanoma
MCF7 breast = test system: MCF7 breast
MDA-MB-231 breast = test system: MDA-MB-231 breast
MDA-MB-435 = test system: MDA-MB-435
MDA-N = test system: MDA-N
MOLT-4 leukemia = test system: MOLT-4 leukemia
NCI-H226 lung = test system: NCI-H226 lung
NCI-H23 lung = test system: NCI-H23 lung
NCI-H460 lung = test system: NCI-H460 lung
NCI-H522 lung = test system: NCI-H522 lung
NCI/ADR-RES ovarian = test system: NCI/ADR-RES ovarian
OVCAR-3 ovarian = test system: OVCAR-3 ovarian
OVCAR-4 ovarian = test system: OVCAR-4 ovarian
OVCAR-5 ovarian = test system: OVCAR-5 ovarian
OVCAR-8 ovarian = test system: OVCAR-8 ovarian
PC-3 prostate = test system: PC-3 prostate
RPMI-8226 leukemia = test system: RPMI-8226 leukemia
RXF 393 renal = test system: RXF 393 renal
SF-268 CNS = test system: SF-268 CNS
SF-295 CNS = test system: SF-295 CNS
SF-539 CNS = test system: SF-539 CNS
SK-MEL-2 melanoma = test system: SK-MEL-2 melanoma
SK-MEL-28 melanoma = test system: SK-MEL-28 melanoma
SK-MEL-5 melanoma = test system: SK-MEL-5 melanoma
SK-OV-3 ovarian = test system: SK-OV-3 ovarian
SN12C renal = test system: SN12C renal
SNB-19 CNS = test system: SNB-19 CNS
SNB-75 CNS = test system: SNB-75 CNS
SR leukemia = test system: SR leukemia
SW-620 colon = test system: SW-620 colon
T-47D breast = test system: T-47D breast
TK-10 renal = test system: TK-10 renal
U251 CNS = test system: U251 CNS
UACC-62 melanoma = test system: UACC-62 melanoma
UO-31 renal = test system: UO-31 renal
UACC-257 melanoma = test system: UACC-257 melanoma

CC(CCCC1SCC2NC(=O)NC21)C(=O)O (stereo unspecified)
TGI (786-0 renal): > 100 µM
TGI (A498 renal): > 100 µM
TGI (A549 NSCLC): > 100 µM
TGI (ACHN renal): > 100 µM
TGI (BT-549 breast): > 100 µM
TGI (CAKI-1 renal): > 100 µM
TGI (COLO 205 colon): > 100 µM
TGI (DU-145 prostate): > 100 µM
TGI (EKVX NSCLC): > 100 µM
TGI (HCT-116 colon): > 100 µM
TGI (HCT-15 colon): > 100 µM
TGI (HL-60(TB) leukemia): > 100 µM
TGI (HOP-62 NSCLC): > 100 µM
TGI (HOP-92 NSCLC): > 100 µM
TGI (HS 578T breast): > 100 µM
TGI (HT29 colon): > 100 µM
TGI (IGROV1 ovarian): > 100 µM
TGI (K-562 leukemia): > 100 µM
TGI (KM12 colon): > 100 µM
TGI (LOX IMVI melanoma): > 100 µM
TGI (M14 melanoma): > 100 µM
TGI (MALME-3M melanoma): > 100 µM
TGI (MCF7 breast): > 100 µM
TGI (MDA-MB-231 breast): > 100 µM
TGI (MDA-MB-435): > 100 µM
TGI (MDA-N): > 100 µM
TGI (MOLT-4 leukemia): > 100 µM
TGI (NCI-H226 lung): > 100 µM
TGI (NCI-H23 lung): > 100 µM
TGI (NCI-H460 lung): > 100 µM
TGI (NCI-H522 lung): > 100 µM
TGI (NCI/ADR-RES ovarian): > 100 µM
TGI (OVCAR-3 ovarian): > 100 µM
TGI (OVCAR-4 ovarian): > 100 µM
TGI (OVCAR-5 ovarian): > 100 µM
TGI (OVCAR-8 ovarian): > 100 µM
TGI (PC-3 prostate): > 100 µM
TGI (RPMI-8226 leukemia): > 100 µM
TGI (RXF 393 renal): > 100 µM
TGI (SF-268 CNS): > 100 µM
TGI (SF-295 CNS): > 100 µM
TGI (SF-539 CNS): > 100 µM
TGI (SK-MEL-2 melanoma): > 100 µM
TGI (SK-MEL-28 melanoma): > 100 µM
TGI (SK-MEL-5 melanoma): > 100 µM
TGI (SK-OV-3 ovarian): > 100 µM
TGI (SN12C renal): > 100 µM
TGI (SNB-19 CNS): > 100 µM
TGI (SNB-75 CNS): > 100 µM
TGI (SR leukemia): > 100 µM
TGI (SW-620 colon): > 100 µM
TGI (T-47D breast): > 100 µM
TGI (TK-10 renal): > 100 µM
TGI (U251 CNS): > 100 µM
TGI (UACC-62 melanoma): > 100 µM
TGI (UO-31 renal): > 100 µM

CN1C(=O)C23CCCCC2CC1(c1ccccc1)S3 (stereo unspecified)
TGI (786-0 renal): > 100 µM
TGI (A498 renal): > 100 µM
TGI (A549 NSCLC): > 100 µM
TGI (ACHN renal): > 100 µM
TGI (BT-549 breast): > 100 µM
TGI (CAKI-1 renal): > 100 µM
TGI (COLO 205 colon): > 100 µM
TGI (DU-145 prostate): > 100 µM
TGI (EKVX NSCLC): > 100 µM
TGI (HCT-116 colon): > 100 µM
TGI (HCT-15 colon): > 100 µM
TGI (HL-60(TB) leukemia): > 100 µM
TGI (HOP-62 NSCLC): > 100 µM
TGI (HOP-92 NSCLC): > 100 µM
TGI (HS 578T breast): > 100 µM
TGI (HT29 colon): > 100 µM
TGI (IGROV1 ovarian): > 100 µM
TGI (K-562 leukemia): > 100 µM
TGI (KM12 colon): > 100 µM
TGI (LOX IMVI melanoma): > 100 µM
TGI (M14 melanoma): > 100 µM
TGI (MALME-3M melanoma): > 100 µM
TGI (MCF7 breast): > 100 µM
TGI (MDA-MB-231 breast): > 100 µM
TGI (MDA-MB-435): > 100 µM
TGI (MDA-N): > 100 µM
TGI (MOLT-4 leukemia): > 100 µM
TGI (NCI-H226 lung): > 100 µM
TGI (NCI-H23 lung): > 100 µM
TGI (NCI-H522 lung): > 100 µM
TGI (NCI/ADR-RES ovarian): > 100 µM
TGI (OVCAR-3 ovarian): > 100 µM
TGI (OVCAR-4 ovarian): > 100 µM
TGI (OVCAR-5 ovarian): > 100 µM
TGI (OVCAR-8 ovarian): > 100 µM
TGI (PC-3 prostate): > 100 µM
TGI (RPMI-8226 leukemia): > 100 µM
TGI (RXF 393 renal): > 100 µM
TGI (SF-268 CNS): > 100 µM
TGI (SF-295 CNS): > 100 µM
TGI (SF-539 CNS): > 100 µM
TGI (SK-MEL-2 melanoma): > 100 µM
TGI (SK-MEL-28 melanoma): > 100 µM
TGI (SK-MEL-5 melanoma): > 100 µM
TGI (SK-OV-3 ovarian): > 100 µM
TGI (SN12C renal): > 100 µM
TGI (SNB-19 CNS): > 100 µM
TGI (SR leukemia): > 100 µM
TGI (SW-620 colon): > 100 µM
TGI (T-47D breast): > 100 µM
TGI (TK-10 renal): > 100 µM
TGI (U251 CNS): > 100 µM
TGI (UACC-257 melanoma): 54.5 µM
TGI (UACC-62 melanoma): > 100 µM
TGI (UO-31 renal): > 100 µM
